# Test results published in patent US9573887B2, “Naphthalene derivative” (Daito Chemix Corporation, priority 2010, dated 2017).
# Where a name gives a salt, the structure may show the parent alone.
# Target: T1, Mouse VCP (Mus musculus, UniProt Q01853)
# T1 construct: histidine tag (N); made in house; host or cells: Sf-9 insect cells (baculovirus vector pVL1392)
# Test: ATPase activity of purified His-tagged VCP, [γ-32P]ATP, liberated phosphate by liquid scintillation
# Assay type: biochemical
# Conditions: compounds of Examples; ATPase inhibitory activity; 500 ng VCP, 100 μM ATP, 37° C., 10 minutes
# Summary of the method: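 N-terminally His-tagged mouse VCP, expressed in Sf-9 cells and nickel-purified, was incubated (500 ng) with 100 μM [γ-32P]ATP and test substance at various concentrations in pH 7.4 HEPES/KCl/MgCl2/DTT buffer, 37° C, 10 min. After TCA stop, released phosphate was molybdate-extracted into organic phase and scintillation-counted. IC50 fitted from concentration-response.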
# T1 sequence (Q01853 whole entry): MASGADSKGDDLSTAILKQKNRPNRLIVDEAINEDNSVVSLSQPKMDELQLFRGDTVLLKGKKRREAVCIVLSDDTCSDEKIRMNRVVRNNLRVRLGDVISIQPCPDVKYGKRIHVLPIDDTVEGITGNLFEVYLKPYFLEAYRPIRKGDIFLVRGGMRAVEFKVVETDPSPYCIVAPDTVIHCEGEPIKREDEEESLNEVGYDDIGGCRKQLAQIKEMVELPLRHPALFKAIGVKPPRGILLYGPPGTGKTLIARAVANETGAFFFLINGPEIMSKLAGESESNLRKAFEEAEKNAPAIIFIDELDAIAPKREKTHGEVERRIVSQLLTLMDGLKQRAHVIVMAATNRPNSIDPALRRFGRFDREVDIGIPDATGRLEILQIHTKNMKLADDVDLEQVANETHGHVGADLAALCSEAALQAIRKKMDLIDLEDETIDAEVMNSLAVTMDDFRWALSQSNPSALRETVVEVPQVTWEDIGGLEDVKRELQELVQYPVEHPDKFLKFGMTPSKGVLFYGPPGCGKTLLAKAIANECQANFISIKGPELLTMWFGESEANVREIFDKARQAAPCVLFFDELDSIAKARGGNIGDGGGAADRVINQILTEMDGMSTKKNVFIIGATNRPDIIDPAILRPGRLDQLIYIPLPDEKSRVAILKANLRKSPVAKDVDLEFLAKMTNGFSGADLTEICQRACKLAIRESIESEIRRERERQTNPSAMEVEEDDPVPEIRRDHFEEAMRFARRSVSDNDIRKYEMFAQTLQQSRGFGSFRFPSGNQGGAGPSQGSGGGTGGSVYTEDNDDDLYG
row,Structure (SMILES),IC50 [nM]
1,"COc1ccc(-c2ccc(/N=N/c3cc(S(=O)(=O)O)c4ccccc4c3N)cn2)cc1 [Example 26, 4-amino-3-[6-(4-methoxyphenyl)pyridine-3-ylazo]naphthalene-1-sulfonic acid sodium salt]",304
2,"Nc1c(/N=N/c2ccc(-c3cccc4c3sc3ccccc34)nc2)cc(S(=O)(=O)O)c2ccccc12 [Example 31, 4-amino-3-(6-dibenzothiophene-4-ylpyridine-3-ylazo)naphthalene-1-sulfonic acid sodium salt]",1030
3,"Nc1c(/N=N/c2ccc(-c3cccnc3)nc2-c2cccnc2)cc(S(=O)(=O)O)c2ccccc12 [Example 54, 4-amino-3-([3,2′;6′,3″]terpyridine-3′-ylazo)naphthalene-1-sulfonic acid sodium salt]",1060
4,"CCCCc1ccc(-c2ccc(/N=N/c3cc(S(=O)(=O)O)c4ccccc4c3N)cn2)cc1 [Example 62, 4-amino-3-[6-(4-butylphenyl)pyridine-3-ylazo]naphthalene-1-sulfonic acid sodium salt]",856
5,"COC(=O)CCC(=O)c1ccc(-c2ccc(/N=N/c3cc(S(=O)(=O)O)c4ccccc4c3N)cn2)cc1 [Example 40, methyl 4-{4-[5-(1-amino-4-sulfonaphthalene-2-ylazo)pyridine-2-yl]phenyl}-4-oxobutyrate sodium salt]",328
6,"Nc1c(/N=N/c2ccc(/C=C/c3ccccc3)nc2)cc(S(=O)(=O)O)c2ccccc12 [Example 30, 4-amino-3-(6-styrylpyridine-3-ylazo)naphthalenesulfonic acid sodium salt]",1140
7,"Cc1cc(C)cc(-c2ccc(C)cc2-c2ccc(/N=N/c3cc(S(=O)(=O)O)c4ccccc4c3N)cn2)c1 [Example 74, 4-amino-3-[6-(4,3′,5′-trimethylbiphenyl-2-yl)pyridine-3-ylazo]naphthalene-1-sulfonic acid sodium salt]",4000
8,"CCCCOc1ccccc1-c1ccc(/N=N/c2cc(S(=O)(=O)O)c3ccccc3c2N)cn1 [Example 60, 4-amino-3-[6-(2-butoxyphenyl)pyridine-3-ylazo]naphthalene-1-sulfonic acid sodium salt]",250
9,"Nc1c(/N=N/c2ccc(-c3cccc(Cl)c3)nc2)cc(S(=O)(=O)O)c2ccccc12 [Example 23, 4-amino-3-[6-(3-chlorophenyl)pyridine-3-ylazo]naphthalene-1-sulfonic acid sodium salt]",324
10,"Cc1ccc(F)cc1-c1ccc(/N=N/c2cc(S(=O)(=O)O)c3ccccc3c2N)cn1 [Example 58, 4-amino-3-[6-(5-fluoro-2-methylphenyl)pyridine-3-ylazo]naphthalene-1-sulfonic acid sodium salt]",320
11,"Nc1c(/N=N/c2ccc(-c3ccc(C(F)(F)F)cc3)nc2)cc(S(=O)(=O)O)c2ccccc12 [Example 21, 4-amino-3-[6-(4-trifluoromethylphenyl)pyridine-3-ylazo]naphthalene-1-sulfonic acid sodium salt]",445

# Further lines, results first:
row,IC50 [nM],Structure (SMILES)
1,244,"Nc1c(/N=N/c2ccc(Cl)cc2Cl)cc(S(=O)(=O)O)c2ccccc12 [Example 111, 4-amino-3-(2,4-dichlorophenylazo)naphthalene-1-sulfonic acid sodium salt]"
2,266,"Nc1c(/N=N/c2ccc(Br)cc2Br)cc(S(=O)(=O)O)c2ccccc12 [Example 113, 4-amino-3-(2,4-dibromophenylazo)naphthalene-1-sulfonic acid sodium salt]"
3,242,"Nc1c(/N=N/c2ccc(C(=O)c3ccccc3)cc2)cc(S(=O)(=O)O)c2ccccc12 [Example 131, 4-amino-3-(4-benzoylphenylazo)naphthalene-1-sulfonic acid sodium salt]"
4,904,"Nc1c(/N=N/c2ccc(F)cc2)cc(S(=O)(=O)O)c2ccccc12 [Example 102, 4-amino-3-(4-fluorophenylazo)naphthalene-1-sulfonic acid sodium salt]"
5,1230,"Nc1c(/N=N/c2ccc(F)cc2F)cc(S(=O)(=O)O)c2ccccc12 [Example 116, 4-amino-3-(2,4-difluorophenylazo)naphthalene-1-sulfonic acid sodium salt]"
6,567,"Cc1ccc2cccc(-c3ccc(/N=N/c4cc(S(=O)(=O)O)c5ccccc5c4N)cn3)c2n1 [Example 84, 4-amino-3-[6-(2-methylquinoline-8-yl)pyridine-3-ylazo]naphthalene-1-sulfonic acid sodium salt]"
7,135,"Nc1c(/N=N/c2ccc(OCc3ccncc3)cc2)cc(S(=O)(=O)O)c2ccccc12 [Example 132, 4-amino-3-[4-(pyridine-4-ylmethoxy)phenylazo]naphthalene-1-sulfonic acid sodium salt]"
8,288,"Nc1c(/N=N/c2ccccc2Br)cc(S(=O)(=O)O)c2ccccc12 [Example 108, 4-amino-3-(2-bromophenylazo)naphthalene-1-sulfonic acid sodium salt]"
9,128,"Nc1c(/N=N/c2c(Br)cc(-c3cccnc3)cc2Br)cc(S(=O)(=O)O)c2ccccc12 [Example 128, 4-amino-3-(2,6-dibromo-4-pyridine-3-ylphenylazo)naphthalene-1-sulfonic acid sodium salt]"
10,295,"Nc1c(/N=N/c2cnc3ccccc3c2)cc(S(=O)(=O)O)c2ccccc12 [Example 145, 4-amino-3-(quinoline-3-ylazo)naphthalene-1-sulfonic acid sodium salt]"
11,238,"N#Cc1ccccc1/N=N/c1cc(S(=O)(=O)O)c2ccccc2c1N [Example 105, 4-amino-3-(2-cyanophenylazo)naphthalene-1-sulfonic acid sodium salt]"
12,1390,"Nc1c(/N=N/c2cccc(Cl)c2)cc(S(=O)(=O)O)c2ccccc12 [Example 99, 4-amino-3-(3-chlorophenylazo)naphthalene-1-sulfonic acid sodium salt]"
13,552,"Cc1cc(/N=N/c2cc(S(=O)(=O)O)c3ccccc3c2N)cnc1-c1ccccc1-c1ccccc1 [Example 86, 4-amino-3-(6-biphenyl-2-yl-5-methylpyridine-3-ylazo)naphthalene-1-sulfonic acid sodium salt]"
